Assay results as given in patent US20140242599A1, “MATERIALS AND METHODS FOR DETERMINING SENSITIVITY POTENTIAL OF COMPOUNDS” (ELECTROPHORETICS LIMITED, priority 2011, published 2014).

Tests used:
[1] = test system: Heat shock 70 kDa protein 1 (HSP70, HSPA1A; HSPA1B); assay: HSP70-specific ELISA of keratinocyte cell extracts; type: cell-based; conditions: primary human keratinocytes, 24 h exposure, FIG. 3
[2] = test system: Aldo-keto reductase family 1, member C2 (AKR1C2); assay: Western Blot quantification of AKR1C2 in keratinocyte cell extracts; type: cell-based; conditions: primary human keratinocytes, 24 h exposure, FIG. 4
Protocol: (§1) Primary human keratinocytes were obtained from Provitro (Berlin, Germany). Cells were seeded at 3×10E5 cells per 10 cm dish. Cells were grown in serum free supplemented keratinocyte growth medium (Provitro) to 80-90% density prior to treatment. Cells were grown at 37° C. in 5% CO2. Second and third passages post-cryopreserved seedings were used for experiments
(§2) Test chemicals were added and the plates were incubated for 24 hours at 37° C. in a 5% CO2 humidified incubator. When a chemical was dissolved in DMSO, a final concentration of 0.1% DMSO was used in the relevant negative control. After 24 h incubation, cells were harvested and washed twice in PBS.
Cells were lysed in four volumes of 100 mM TEAB (triethylammonium bicarbonate), pH 8.5+0.1, 1 mM TCEP (tris[2-carboxyethyl]phosphine*HCl), 0.1% SDS. After suspending the cell pellet in lysis buffer the suspension was heated at 95° C. for ten minutes in a thermomixer ([Eppendorf, Thermomixer comfort). […]
(§3) As an alternative approach to find predictive markers for sensitizing potential we measured the concentration of biomarkers using commercially available immunoassays to measure the levels of three biomarkers. The three proteins to be measured by Western Blot or ELISA were selected on the basis of a review of literature references to biomarkers of stress toxicity pathways. […]

[3] = mouse, in vivo; cited from earlier work
Nrf2 pathway = conditions: cited from earlier work
[4] = test system: Metallothionein-1G (MT1G); assay: Western Blot quantification of MT1G in keratinocyte cell extracts; type: cell-based; conditions: primary human keratinocytes, 24 h exposure, FIG. 5
Protocol: as §1, §2
Cells were lysed in four volumes of 100 mM TEAB (triethylammonium bicarbonate), pH 8.5+0.1, 1 mM TCEP (tris[2-carboxyethyl]phosphine*HCl), 0.1% SDS. […]
as §3
. […] Effects of contact sensitizers and irritants on MT1G production was determined by Western Blot analysis using MT1G specific antibodies (clone UC1MT, Biozol, Eching, Germany). […]

[5] = test system: Primary human keratinocytes; assay: TMT proteomic profiling of exposed keratinocytes, PLS score plot of 102 protein biomarkers; type: cell-based; conditions: second study, four donors, FIG. 2
[6] = test system: luciferase gene under the control of the ARE of the AKR1C2 gene in HaCaT keratinocytes; conditions: screen of 43 sensitizers and 24 non-sensitizers; cited from earlier work

SMILES	HSP70 induction (ELISA) [1]	AKR1C2 induction (Western Blot) [2]	LLNA EC3 (%) [3]	LLNA outcome / sensitizer potency class [3]	reactivity of BDKs, NEHKs and THP-1 (Nrf2 pathway) (Nrf2 pathway)	MT1G induction (Western Blot) [4]	relative distance from the centre of the PLS score plot (size of response) [5]	KeratinoSens identification of sensitizer [6]
O=CC=Cc1ccccc1 [CA, 3-phenyl-2-Propenal]	most strongly induced	only induced in CA exposed samples	2.8%	(moderate)				
O=[N+]([O-])c1ccc(Cl)c([N+](=O)[O-])c1 [DNCB, 1-chloro-2,4-dinitrobenzene]	small				high reactivity			
CN(C)C(=S)SSC(=S)N(C)C [TMTD, Tetramethyl thiuram disulfide]	most strongly induced		5.2%	(moderate)		most strongly induced	smaller distance to the centre of the plot	
O=C(Oc1ccccc1)c1ccccc1 [phenyl benzoate]								false negative
